Tested on: psoriasis
Assay: Separate tests of the single agents for treating psoriasis
Assay type: in vivo, human
Conditions: agent used alone
Excerpt: Salicylic acid alone was ineffective.

SMILES	efficacy for treating psoriasis
O=C(O)c1ccccc1O [Salicylic acid, salicylic acid]	ineffective
Cl[Te]1(Cl)(Cl)OCCO1.N [ammonium trichloro (dioxoethylene-O,O′) tellurate]	effective for treating psoriasis but worked very slowly

Reference: US6472381B1, “Method of treating psoriasis” (Biomas Inc., priority 2001, dated 2002)
